{
  "source": "paper PMC7673538",
  "about": "(PLoS Biology, 2020)",
  "key": {"EV-D68": {"test_system": "EV-D68", "experiment": "microbe, parasite or virus in culture", "format": "cell-based, enterovirus D68", "conditions": "Enterovirus D, EVD68 / genotype 2c, HeLa R19, read-out: EC50 EV-D68 WT"}, "human SERT": {"target": "T1, human SERT (Homo sapiens, UniProt P31645)", "T1 construct": "expressed in transfected cells; host or cells: HEK293 (gift of Dr. Hoener, F. Hoffmann-La Roche)", "T1 sequence (P31645 whole entry)": "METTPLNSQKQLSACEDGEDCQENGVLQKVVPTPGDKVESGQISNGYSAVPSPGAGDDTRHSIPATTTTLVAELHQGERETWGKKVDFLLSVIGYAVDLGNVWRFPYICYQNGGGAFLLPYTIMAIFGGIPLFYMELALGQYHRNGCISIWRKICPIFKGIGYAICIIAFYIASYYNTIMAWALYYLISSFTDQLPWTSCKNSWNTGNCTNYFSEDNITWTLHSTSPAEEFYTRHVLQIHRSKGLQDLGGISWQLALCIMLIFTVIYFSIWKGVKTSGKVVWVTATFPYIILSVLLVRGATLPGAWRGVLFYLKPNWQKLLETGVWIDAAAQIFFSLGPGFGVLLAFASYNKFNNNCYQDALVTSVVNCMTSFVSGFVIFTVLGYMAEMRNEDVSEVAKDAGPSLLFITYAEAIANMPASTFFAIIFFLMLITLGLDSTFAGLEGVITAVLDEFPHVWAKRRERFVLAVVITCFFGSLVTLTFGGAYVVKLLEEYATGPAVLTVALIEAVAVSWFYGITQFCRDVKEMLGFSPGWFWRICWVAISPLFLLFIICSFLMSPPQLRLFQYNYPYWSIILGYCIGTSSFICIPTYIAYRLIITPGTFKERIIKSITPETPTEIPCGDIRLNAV", "format": "cell-based"}, "PV-1": {"test_system": "PV-1", "experiment": "microbe, parasite or virus in culture", "format": "cell-based, poliovirus 1", "conditions": "Enterovirus C"}, "human NET": {"target": "T2, human NET (Homo sapiens, UniProt P23975)", "T2 construct": "expressed in transfected cells; host or cells: HEK293 (gift of Dr. Hoener, F. Hoffmann-La Roche)", "T2 sequence (P23975 whole entry)": "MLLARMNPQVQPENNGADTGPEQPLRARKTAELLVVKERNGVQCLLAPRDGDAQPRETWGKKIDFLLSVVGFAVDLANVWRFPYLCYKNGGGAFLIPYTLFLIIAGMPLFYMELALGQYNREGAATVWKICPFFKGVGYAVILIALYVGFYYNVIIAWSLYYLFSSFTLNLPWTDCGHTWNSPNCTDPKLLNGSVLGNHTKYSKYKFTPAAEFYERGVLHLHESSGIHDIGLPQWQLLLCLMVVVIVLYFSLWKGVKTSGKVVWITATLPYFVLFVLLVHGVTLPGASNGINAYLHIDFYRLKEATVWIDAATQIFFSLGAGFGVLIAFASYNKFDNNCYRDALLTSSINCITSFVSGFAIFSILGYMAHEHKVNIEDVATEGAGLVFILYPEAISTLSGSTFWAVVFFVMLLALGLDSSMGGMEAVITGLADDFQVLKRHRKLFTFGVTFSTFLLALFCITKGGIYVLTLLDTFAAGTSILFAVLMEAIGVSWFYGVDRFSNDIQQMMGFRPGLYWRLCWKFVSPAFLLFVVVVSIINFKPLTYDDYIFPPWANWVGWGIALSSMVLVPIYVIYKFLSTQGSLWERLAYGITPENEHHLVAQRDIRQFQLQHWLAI", "format": "cell-based", "conditions": "for NET, Mean (Figure 8B): Control = 100; for NET, Mean as % (Figure 8B): Control = 100%"}, "EV-A71 (strain BrCr)": {"test_system": "EV-A71 (strain BrCr)", "format": "cell-based, enterovirus A71"}, "CV-A24v": {"test_system": "CV-A24v", "experiment": "microbe, parasite or virus in culture", "format": "cell-based, coxsackievirus A24v"}, "CV-B3": {"test_system": "CV-B3", "experiment": "microbe, parasite or virus in culture", "format": "cell-based, coxsackievirus B3", "conditions": "Enterovirus B, CVB3, BGM"}, "CV-A24": {"test_system": "CV-A24", "experiment": "microbe, parasite or virus in culture", "format": "cell-based, coxsackievirus A24"}, "CV-A24 (strain Joseph)": {"test_system": "CV-A24 (strain Joseph)", "format": "cell-based, coxsackievirus A24"}, "HRV-B14": {"test_system": "HRV-B14", "format": "cell-based, human rhinovirus"}, "EV-D68 (strain Fermon)": {"test_system": "EV-D68 (strain Fermon)", "format": "cell-based, enterovirus D68"}, "[1]": {"test_system": "representative EVs and RVs", "format": "cell-based"}},
  "note": "Where “and” joins values, the source holds several entries; their conditions need not be identical. Identical values can stand only once. Like-named read-outs stand apart in the source and are kept apart here.",
  "data": [
    {"molecule": "O=C(c1ccco1)N(Cc1ccc(C(F)(F)F)cc1)c1ccccc1", "note": "[Compound 19d, N-phenyl-N-(4-(trifluoromethyl)benzyl)furan-2-carboxamide]", "values": [
      {"measurement": "EC50", "setting": "EV-D68", "value": "1.55 ± 0.17", "unit": "µM"},
      {"measurement": "SERT, Mean (Figure 8B)", "setting": "human SERT; 1µM, Control = 100.00", "value": 104.62},
      {"measurement": "SERT, Mean as % (Figure 8B)", "setting": "human SERT; 1µM, Control = 100%", "value": 105, "unit": "%"},
      {"measurement": "SERT, Mean (Figure 8B)", "setting": "human SERT; 100µM", "value": 107.21},
      {"measurement": "SERT, Mean as % (Figure 8B)", "setting": "human SERT; 100µM", "value": 107, "unit": "%"},
      {"measurement": "inhibition of SERT-mediated uptake (in words)", "setting": "human SERT; HEK293 cells expressing human SERT, 1 and 100 μM", "value": "neither 12a, 19b, 19d, nor the combined compound 12b inhibited"},
      {"measurement": "EC50", "setting": "PV-1; HeLa R19, read-out: EC50 Exp1", "value": 21, "unit": "µM"},
      {"measurement": "EC50", "setting": "PV-1; HeLa R19, read-out: EC50 Exp2", "value": 22.1, "unit": "µM"},
      {"measurement": "EC50", "setting": "PV-1; HeLa R19, read-out: EC50 PV-1", "value": "21.5 ± 0.54", "unit": "µM"},
      {"measurement": "NET, Mean (Figure 8B)", "setting": "human NET; 1µM", "value": 125.873},
      {"measurement": "NET, Mean as % (Figure 8B)", "setting": "human NET; 1µM", "value": 126, "unit": "%"},
      {"measurement": "NET, Mean (Figure 8B)", "setting": "human NET; 100µM", "value": 118.011},
      {"measurement": "NET, Mean as % (Figure 8B)", "setting": "human NET; 100µM", "value": 118, "unit": "%"},
      {"measurement": "inhibition of NET function (in words)", "setting": "human NET; HEK293 cells expressing human NET, 1 μM or 100 μM", "value": "neither 12a, 19b, 19d, nor the combined compound 12b inhibited"},
      {"measurement": "virus titer, TCID50/ml (Figure 2A)", "setting": "EV-A71 (strain BrCr); compound concentration 10 µM", "value": 316.228, "unit": "TCID50/ml"},
      {"measurement": "virus titer, TCID50/ml (Figure 2A)", "setting": "EV-A71 (strain BrCr); compound concentration 30 µM", "value": 316.228, "unit": "TCID50/ml"},
      {"measurement": "virus titer, TCID50/ml (Figure 2A)", "setting": "EV-A71 (strain BrCr); compound concentration 100 µM", "value": 316.228, "unit": "TCID50/ml"},
      {"measurement": "virus titer, TCID50/ml (Figure 2A)", "setting": "EV-A71 (strain BrCr); compound concentration 150 µM", "value": 316.228, "unit": "TCID50/ml"},
      {"measurement": "cytotoxicity (in words)", "setting": "HeLa R19 cells", "value": "very minimal cytotoxicity"},
      {"measurement": "EC50", "setting": "CV-A24v; Coxsackievirus, HeLa R19, read-out: EC50 Average", "value": 18.6, "unit": "µM"},
      {"measurement": "EC50", "setting": "CV-A24v; Coxsackievirus, HeLa R19, read-out: EC50 CV-A24v strain 110386", "value": "15.7 ± 1.32", "unit": "µM"},
      {"measurement": "EC50", "setting": "CV-A24v; Coxsackievirus, HeLa R19, read-out: EC50 CV-A24v strain 110389", "value": "18.6 ± 0.44", "unit": "µM"},
      {"measurement": "EC50", "setting": "CV-A24v; Coxsackievirus, HeLa R19, read-out: EC50 CV-A24v strain 110390", "value": "16.8 ± 0.33", "unit": "µM"},
      {"measurement": "EC50", "setting": "CV-A24v; Coxsackievirus, HeLa R19, read-out: EC50 CV-A24v strain 110392", "value": "19.1 ± 0.97", "unit": "µM"},
      {"measurement": "EC50", "setting": "CV-A24v; Coxsackievirus, HeLa R19, read-out: EC50 Exp1", "value": 17, "unit": "µM"},
      {"measurement": "EC50", "setting": "CV-A24v; Coxsackievirus, HeLa R19, read-out: EC50 Exp2", "value": 14.3, "unit": "µM"},
      {"measurement": "EC50", "setting": "CV-A24v; read-out: EC50 Average", "value": 16.8, "unit": "µM"},
      {"measurement": "EC50", "setting": "CV-A24v; read-out: EC50 Exp1", "value": "18.1 µM and 17.1 µM and 20 µM"},
      {"measurement": "EC50", "setting": "CV-A24v; read-out: EC50 Exp2", "value": "19 µM and 16.4 µM and 18.1 µM"},
      {"measurement": "EC50", "setting": "CV-B3; read-out: EC50 BGM Average", "value": 0.38, "unit": "µM"},
      {"measurement": "EC50", "setting": "CV-B3; read-out: Exp 1 EC50 BGM", "value": 0.44, "unit": "µM"},
      {"measurement": "EC50", "setting": "CV-B3; read-out: Exp 2 EC50 BGM", "value": 0.32, "unit": "µM"},
      {"measurement": "EC50", "setting": "CV-A24; Enterovirus C, CVA24, HeLa R19, read-out: EC50 CV-A24", "value": "19.5 ± 0.55", "unit": "µM"},
      {"measurement": "EC50", "setting": "CV-A24; Enterovirus C, CVA24, HeLa R19, read-out: EC50 CV-A24 strain Joseph", "value": "18.7 ± 0.67", "unit": "µM"},
      {"measurement": "EC50", "setting": "CV-A24; Enterovirus C, CVA24, HeLa R19, read-out: EC50 Exp1", "value": 19, "unit": "µM"},
      {"measurement": "EC50", "setting": "CV-A24; Enterovirus C, CVA24, HeLa R19, read-out: EC50 Exp2", "value": 20.1, "unit": "µM"},
      {"measurement": "EC50", "setting": "CV-A24; read-out: EC50 Exp1", "value": 18, "unit": "µM"},
      {"measurement": "EC50", "setting": "CV-A24; read-out: EC50 Exp2", "value": 19.3, "unit": "µM"},
      {"measurement": "virus titer, TCID50/ml (Figure 2A)", "setting": "CV-A24 (strain Joseph); compound concentration 10 µM", "value": 316.228, "unit": "TCID50/ml"},
      {"measurement": "virus titer, TCID50/ml (Figure 2A)", "setting": "CV-A24 (strain Joseph); compound concentration 30 µM", "value": 316.228, "unit": "TCID50/ml"},
      {"measurement": "virus titer, TCID50/ml (Figure 2A)", "setting": "CV-A24 (strain Joseph); compound concentration 100 µM", "value": 316.228, "unit": "TCID50/ml"},
      {"measurement": "virus titer, TCID50/ml (Figure 2A)", "setting": "CV-A24 (strain Joseph); compound concentration 150 µM", "value": 316.228, "unit": "TCID50/ml"},
      {"measurement": "virus titer, TCID50/ml (Figure 2A)", "setting": "HRV-B14; compound concentration 0.001 µM", "value": "13548130 TCID50/ml and 11698240 TCID50/ml"},
      {"measurement": "virus titer, TCID50/ml (Figure 2A)", "setting": "HRV-B14; compound concentration 0.01 µM", "value": "16982410 TCID50/ml and 30000000 TCID50/ml and 31612280 TCID50/ml"},
      {"measurement": "virus titer, TCID50/ml (Figure 2A)", "setting": "HRV-B14; compound concentration 0.1 µM", "value": "13548130 TCID50/ml and 11698240 TCID50/ml"},
      {"measurement": "virus titer, TCID50/ml (Figure 2A)", "setting": "HRV-B14; compound concentration 0.3 µM", "value": "13548130 TCID50/ml and 11698240 TCID50/ml"},
      {"measurement": "virus titer, TCID50/ml (Figure 2A)", "setting": "HRV-B14; compound concentration 1 µM", "value": "348134 TCID50/ml and 316228 TCID50/ml and 354813 TCID50/ml"},
      {"measurement": "virus titer, TCID50/ml (Figure 2A)", "setting": "EV-D68 (strain Fermon); compound concentration 0.01 µM", "value": "6000000 TCID50/ml and 4677352 TCID50/ml and 3162278 TCID50/ml"},
      {"measurement": "virus titer, TCID50/ml (Figure 2A)", "setting": "EV-D68 (strain Fermon); compound concentration 0.1 µM", "value": "5888437 TCID50/ml and 6000000 TCID50/ml and 3162278 TCID50/ml"},
      {"measurement": "virus titer, TCID50/ml (Figure 2A)", "setting": "EV-D68 (strain Fermon); compound concentration 0.3 µM", "value": "6000000 TCID50/ml and 3548134 TCID50/ml"},
      {"measurement": "virus titer, TCID50/ml (Figure 2A)", "setting": "EV-D68 (strain Fermon); compound concentration 10 µM", "value": "31622.8 TCID50/ml and 21379.6 TCID50/ml and 35481.3 TCID50/ml"},
      {"measurement": "inhibition of contemporary/clinical isolates of EV-A71, CV-A24v and EV-D68 (in words)", "setting": "[1]", "value": "inhibited all clinical isolates of EV-A71, CV-A24v, and EV-D68 tested"},
      {"measurement": "spectrum of antiviral activity (in words)", "setting": "[1]", "value": "inhibited all representative EVs and RVs"}
    ]}
  ]
}
